Reference: patent US7053052B2, “Therapies involving mutated heat shock transcription factor” (priority 1997, dated 2006)
“Also recorded” adds a separate entry of the source.

Columns and labels:
[1] = system: human hsp70B promoter-driven chloramphenicol acetyltransferase (CAT) gene; test: hsp70B-CAT reporter gene assay in HeLa-CAT cells; type: cell-based
Procedure: CAT assays were performed using the chromatographic assay of Gorman, C. M. et al., Mol. Cell. Biol., 2:1044–1051 (1982)). DNA replication was assessed by a standard ^3H-thymidine incorporation assay. In most experiments, including all western blot assays, standardization was based on protein content. All protein determinations were made using the Bradford method. In a few experiments involving sorted cells, standardization was based on cell numbers. All experiments were repeated at least twice, and, in most cases, each data point was derived from assays of 3–5 parallel samples.
To find out whether HSF1(−) could function as a negatively acting factor, HeLa-CAT cells containing integrated copies of an hsp70B-chloramphenicol acetyltransferase (CAT) gene were co-transfected with an HSF1(−) and an EFGP-expressing construct. […] To determine whether elevated Hsp levels induced by heat preconditioning are required for development of tolerance measured as an increased rate of recovery from heat-induced translational arrest, cultures co-transfected with EGFP- and HSF1(−)-expressing constructs or transfected with EGFP-expressing construct only (control cultures) were mildly heat-preconditioned (41° C./1 hour) and, 3 hours later, subjected to a 44° C./30 minutes (severe) heat shock. […] Rates of protein synthesis were assessed by pulse-labeling cells with ^3H-leucine. […]

[2] = system: endogenous hsp genes in HeLa-CAT cells; test: Expression of endogenous hsps (anti-hsp western blot, 3H-leucine labeling/fluorography); type: cell-based, human
Procedure: Cells were scraped of dishes and lysed in buffer C. Aliquots containing equal amounts of cell protein as well as prestained molecular weight markers were applied to 8.5% SDS-PAGE gels. Following electrophoresis, proteins were transferred to Immobilon-P Transfer Membranes (Millipore Corp., Bedford, Mass.), and membranes were blocked by incubation with TBS (25 mM Tris-HCl, pH 8.0, 0.136 M NaCl, 2.7 mM KCl) with 2% nonfat dry milk. Appropriate sections of membranes were incubated with anti-HSF1 polyclonal antibody (Baler, R. et al., Mol. Cell. Biol., 13:2486–2496 (1993)), anti-Hsp antibodies (all from StressGen Biotechnologies Corp., Victoria, B C) or anti-actin antibody (Amersham, Arlington Heights, Ill.). Following three washes with TBS, membranes were reblocked and incubated with second antibody (horseradish peroxidase-conjugated anti-mouse or anti-rabbit IgG (Amersham). After several washes in TBS, membranes were developed using the ECL Western Blot Detection Kit (Amersham).
To avoid the apparent problem with low transfection efficiency altogether, the transfection approach was substituted by an infection approach. The mutHSF cDNA (HSF1(+)) was inserted behind a cytomegalovirus promoter flanked by adenoviral sequences in plasmid vector AC CMV pLpA SR (+). Human 293 cells expressing the adenovirus E1A region genes were co-transfected with plasmid vector lacking an inserted foreign gene or plasmid vector containing mutHSF and plasmid JM17 containing the bulk of adenovirus sequences. By recombination of sequences on the two types of plasmids, adenoviral genomes were created that lacked the EIA region (replication-defective) but contained a cytomegalovirus promoter (control virus) or a cytomegalovirus promoter linked to the mutHSF gene and that were packaged into defective virus particles (mutHSF virus)(See Graham and Prevec, 1991, for a description of the methodology used to create the adenovirus vehicles). Viral plaques were isolated and expanded, and the viral genomes were analyzed by restriction enzyme digestion. Infections with viruses were performed at a multiplicity of infection (MOI) of about 5. Three groups of 50% confluent cultures of HeLa-CAT cells were set up. The first group was infected with mutHSF virus (Ade-HSF1(+)), the second group with control virus (Ade), and the third group received no virus. The three groups of cultures were then incubated for 15, 24 and 36 hours, respectively, and were subsequently harvested. Extracts were prepared as before.
Even synthesis of the typically less inducible hsps such as hsp73 (also known as hsc70) and hsp60 was enhanced. […] The hsp90 antibody used may have detected both the inducible and constitutive forms of hsp90, masking a more dramatic induction of the inducible form. […]

[3] = 15, 24, 36 hours after infection

Substance | activation of hsp70B-CAT genes in the absence of stress ([1]; no heat shock, listed as mutHSF) | Hsp90 levels (western blot) [2, 3] | expression of hsp72 and hsp27 (western blot) [2, 3] | synthesis of hsp73 and hsp60 (western blot) [2, 3] | heat-induced hsp70B-CAT reporter expression ([1]; 41° C./1 hour heat shock, FACS-isolated cells) | heat-induced Hsp accumulation (anti-Hsp72 western blot) ([2]; 41° C./1 hour heat shock)
human HSF1d202–316 [HSF1(+)] | equally as well as or better than endogenous HSF1 activated by a moderately severe heat shock; also recorded: strongly activated | clearly increased | drastically increased | enhanced |  | 
human HSF1d453–523 [HSF1(−)] |  |  |  |  | severely inhibited | greatly reduced
